Results: the NIST ThermoML archive (doi:10.1021/je0501944)

Experiments:
[1] = 298.15 K, 101.33 kPa, Liquid; for viscosity: Capillary tube (Ostwald / Ubbelohde) method
[2] = xn = mol fraction of the nth substance listed; settings: 298.15 K, 101 kPa, Liquid; for viscosity: Capillary tube (Ostwald / Ubbelohde) method

C1CCCCC1 [cyclohexane]
[1]
Settings	mass density [kg/m3]	viscosity [mPa·s]
–	773.93	0.894

C1CCCCC1 [cyclohexane] + Cc1ccccc1
[2]
Settings	mass density [kg/m3]	viscosity [mPa·s]
x2 = 0.0407	776.48	0.8158
x2 = 0.2018	788.44	0.7133
x2 = 0.2798	794.63	0.6687
x2 = 0.3613	801.33	0.6305
x2 = 0.4416	808.17	0.6081
x2 = 0.6003	822.4	0.566
x2 = 0.6784	829.75	0.5534
x2 = 0.7615	837.82	0.5429
x2 = 0.8396	845.63	0.5395
x2 = 0.9202	853.94	0.5393

CCCCC [pentane]
[1]
Settings	mass density [kg/m3]	viscosity [mPa·s]
–	621.32	0.219

CCCCC [pentane] + C1CCCCC1
[2]
Settings	mass density [kg/m3]	viscosity [mPa·s]
x2 = 0.0437	627.56	0.2065
x2 = 0.2145	653.09	0.2555
x2 = 0.2955	665.44	0.2828
x2 = 0.3753	677.59	0.3128
x2 = 0.4595	690.43	0.3503
x2 = 0.6125	713.75	0.4425
x2 = 0.7048	727.81	0.5146
x2 = 0.7791	739.14	0.5847
x2 = 0.8514	750.15	0.6591
x2 = 0.9254	761.85	0.7641

CCCCC [pentane] + Cc1ccccc1
[2]
Settings	mass density [kg/m3]	viscosity [mPa·s]
x2 = 0.0415	630.69	0.2029
x2 = 0.2011	668.27	0.2231
x2 = 0.2799	687.21	0.2386
x2 = 0.3647	707.61	0.2592
x2 = 0.4341	724.3	0.2786
x2 = 0.6011	764.45	0.3367
x2 = 0.6821	783.95	0.3688
x2 = 0.7502	800.32	0.3999
x2 = 0.8213	817.43	0.4371
x2 = 0.9137	840.19	0.4891

Cc1ccccc1 [toluene]
[1]
Settings	mass density [kg/m3]	viscosity [mPa·s]
–	862.19	0.552
